Data as given in patent US7678395B2, “Stimulation of hair growth by isoginkgetin” (Osteoscreen, Inc., priority 2003, dated 2010).
Where a SMILES comes first, the peptide text is derived from it. The star is where a group is joined. Cbz = O=C(OCc1ccccc1)*; OtBu = CC(C)(C)O*

Assays:
20S proteasome = molecular target: T1, 20S proteasome (Mus musculus, UniProt O55234); test: Proteasome inhibition assay, compounds added directly to 20S proteasome preparation (LLVY-AMC cleavage); assay type: biochemical; conditions: 20S proteasome preparations from packed whole blood of mice, FIG. 2A
T1 construct: 20S proteasome preparations from packed whole blood of mice; from tissue; host or cells: packed whole blood of mice (EDTA lysate supernatant)
Description: If packed whole blood is used as a source for proteasomes, 1 ml blood collected in heparinized microtainer tubes is diluted 1:1 (v/v) with saline and centrifuged at 500×g (Sorvall RT 6000D, rotor H-1000B at 1500 rpm) for 5 min at room temperature. The supernatant is removed and the PWB pellet resuspended in 1 ml PBS and microcentrifuged at 6600×g (Eppendorf 5415C at 7000 rpm) for 10 min at room temperature. The supernatant is removed and the PWB pellet is then frozen at −70° C. prior to proteasome analysis.
To prepare the proteasomes, WBC or RBC or PWB 1:1 (v/v) are lysed using 5 mM EDTA, pH 8.0 for 30 min and centrifuged at 15,000×g (Eppendorf 5415C at 14,000 rpm) for 10 min at room temperature. The supernatant containing proteasomes is placed on ice and the protein concentration is determined. […]
(§1) For the assay, 50 μl sample—i.e., 20 proteasome; or standard; or ˜50 μg/μl WBC; or ˜500 μg/μl RBC or ˜1000 μg/μl PWB samples some containing test compounds is added to 50 μl substrate buffer (20 mM HEPES, 0.5 mM EDTA, 0.05% SDS, and 120 μM LLVY-AMC; pH 8.0) in a 96-well black fluorescence plate. The reaction is measured with a fluorescence spectrophotometer (excitation max.: 380 nm; emission max.: 440 nm, and velocity of reaction determined. As shown, the substrate is Leu-Leu-Val-Tyr-AMC. AMC is amido-4-methylcoumarin. […]

[1] = molecular target: T2, proteasomes of red blood cells (Mus musculus, UniProt O55234); test: Proteasome inhibition assay, red blood cells treated with compounds, then proteasomes isolated and protease activity assessed; assay type: cell-based; conditions: red blood cells treated first, then proteasomes isolated; OSA compared with isoginkgetin; FIG. 2B
T2 construct: endogenous in cells; host or cells: red blood cells
Description: If RBC are used, the RBC pellet obtained in the process of obtaining WBC described above is recovered and washed with 3 ml PBS, then centrifuged at 500×g (Sorvall RT 6000D, rotor H-1000B at 1500 rpm) for 5 min at room temperature. The supernatant is removed and the RBC pellet resuspended in 1 ml PBS and microcentrifuged at 6600×g (Eppendorf 5415C at 7000 rpm) for 10 min at room temperature. The supernatant is again removed and the RBC pellet is then frozen at −70° C. prior to proteasome analysis.
To prepare the proteasomes, WBC or RBC or PWB 1:1 (v/v) are lysed using 5 mM EDTA, pH 8.0 for 30 min and centrifuged at 15,000×g (Eppendorf 5415C at 14,000 rpm) for 10 min at room temperature. The supernatant containing proteasomes is placed on ice and the protein concentration is determined.
as §1

C57 male black mice = test: Stimulation of hair growth on shaved dorsal trunk, topical application; assay type: in vivo; conditions: 5 days, 1% OSA (100 μl) or 10% isoginkgetin (50 μl), after 17 days and 26 days, FIGS. 3A and 3B
Description: C57 male black mice, 8 weeks old, were acclimated for 7 days in individual cages and fed standard diets and water ad libitum. The mice were anesthetized prior to manipulation. The dorsal trunk of each mouse was shaved and then treated topically starting the following day with a 1.0% solution of OSA (100 μl) which was applied for each of 5 days. A similar protocol was followed using 50 μl solution of isoginkgetin at percentages of 1, 5 and 10% wt/wt. The progression of hair growth is monitored visually and photographed.
FIGS. 3A and 3B show the results for 1% OSA or 10% isoginkgetin after 17 days and 26 days respectively.

- inhibition of the Vmax of the proteolytic cleavage of the LLVY-AMC substrate (20S proteasome): similarly inhibit the Vmax
- proteasome inhibition when red blood cells are treated with the compounds [1]: more effective
Compound: CC[C@H](C)[C@H](NC(=O)OCc1ccccc1)C(=O)N[C@@H](CCC(=O)OC(C)(C)C)C(=O)N[C@@H](C)C(=O)N[C@H](C=O)CC(C)C [OSA] (Cbz-IE(OtBu)AL-aldehyde)
- growth of hair in the dorsal area as compared to control (C57 male black mice): stimulate the growth of hair
